The values that follow come from PubChem BioAssay AID2060497 (Molecular Pharmacology Branch, DTP, NCI, 2025).
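Also: spheroids exposed to compounds for one week before readout; percent viability relative to DMSO vehicle wells taken as 100%.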

The first assay concerns 317291-083-R-J1-PDC complex spheroids, viability. Nature of the assay: Anticancer human tumor 317291-083-R-J1-PDC patient-derived soft tissue sarcoma cell line growth inhibition [GQUAD]. The settings on record: second compound 10 µM; first compound 0.0316 µM; hits give low values. An outline of the steps:
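Multi-cell-type spheroids of tumor cells with HUVEC and mesenchymal stem cells, treated with drug combinations. Concentrations descend in half-log steps from near clinical Cmax, or from 10 microM where Cmax is unknown; viability read-out.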
As usually defined, the viability, T/C is the result in the treated group divided by that in the control group, in per cent. Take `COc1cc(C2c3cc4c(cc3C(OC3OC5COC(C)OC5C(O)C3O)C3COC(=O)C23)OCO4)cc(OC)c1O` (configuration not stated) + Cc1[nH]c2ccc(F)cc2c1-c1nc2c3cccnc3c3ncccc3c2[nH]1: the viability, T/C was 73.1%.
On to `O=C(NO)c1cnc(N2CCN(S(=O)(=O)c3ccc4ccccc4c3)CC2)nc1` + Cc1cnc(CNC(=O)c2c(=O)c3ccc(N4CCCN(C)CC4)nc3n3c2sc2ccccc23)cn1, for which the viability, T/C is 0.07%.

The same assay, now with this note: second compound 10 µM; first compound 0.1 µM; hits give low values.
With `CC(C)(O)C1CCC(Nc2ccc3ncc(-c4cccc(C(F)(F)F)c4)n3n2)CC1` (configuration not stated) + CN(C)c1ccc(Nc2c3ccc(NC(=O)CCN4CCCC4)cc3nc3cc(NC(=O)CCN4CCCC4)ccc23)cc1, the viability, T/C is 0.45%.
Still for that read-out and setting: the figure for `C=CC(=O)N1CCN(c2nc(=O)n(-c3c(C)ccnc3C(C)C)c3nc(-c4c(O)cccc4F)c(F)cc23)C(C)C1` (configuration not stated) + CN(C)c1ccc(Nc2c3ccc(NC(=O)CCN4CCCC4)cc3nc3cc(NC(=O)CCN4CCCC4)ccc23)cc1 is 15.1%; for `C=CC(=O)N1CCN(c2nc(=O)n(-c3c(C)ccnc3C(C)C)c3nc(-c4c(O)cccc4F)c(F)cc23)C(C)C1` (configuration not stated) + Cc1cnc(CNC(=O)c2c(=O)c3ccc(N4CCCN(C)CC4)nc3n3c2sc2ccccc23)cn1 it is 63.3%.
Still for that read-out and setting: with `COc1cc(C2c3cc4c(cc3C(OC3OC5COC(C)OC5C(O)C3O)C3COC(=O)C23)OCO4)cc(OC)c1O` (configuration not stated) + Cc1[nH]c2ccc(F)cc2c1-c1nc2c3cccnc3c3ncccc3c2[nH]1 the figure was 57.6%; with `O=C(NO)c1cnc(N2CCN(S(=O)(=O)c3ccc4ccccc4c3)CC2)nc1` + Cc1cnc(CNC(=O)c2c(=O)c3ccc(N4CCCN(C)CC4)nc3n3c2sc2ccccc23)cn1, 0.11%.

Still in this assay, the particulars now being: second compound 10 µM; first compound 0.316 µM; hits give low values.
On to `CC(C)(O)C1CCC(Nc2ccc3ncc(-c4cccc(C(F)(F)F)c4)n3n2)CC1` (configuration not stated) + CN(C)c1ccc(Nc2c3ccc(NC(=O)CCN4CCCC4)cc3nc3cc(NC(=O)CCN4CCCC4)ccc23)cc1, for which the viability, T/C is 0.27%.
Turning to `C=CC(=O)N1CCN(c2nc(=O)n(-c3c(C)ccnc3C(C)C)c3nc(-c4c(O)cccc4F)c(F)cc23)C(C)C1` (configuration not stated) + CN(C)c1ccc(Nc2c3ccc(NC(=O)CCN4CCCC4)cc3nc3cc(NC(=O)CCN4CCCC4)ccc23)cc1, the viability, T/C is 8.38%.
As to `C=CC(=O)N1CCN(c2nc(=O)n(-c3c(C)ccnc3C(C)C)c3nc(-c4c(O)cccc4F)c(F)cc23)C(C)C1` (configuration not stated) + Cc1cnc(CNC(=O)c2c(=O)c3ccc(N4CCCN(C)CC4)nc3n3c2sc2ccccc23)cn1, the viability, T/C is 22.2%.
On the same count and under the same terms, the figure for `COc1cc(C2c3cc4c(cc3C(OC3OC5COC(C)OC5C(O)C3O)C3COC(=O)C23)OCO4)cc(OC)c1O` (configuration not stated) + Cc1[nH]c2ccc(F)cc2c1-c1nc2c3cccnc3c3ncccc3c2[nH]1 is 47.7%.
On to `O=C(NO)c1cnc(N2CCN(S(=O)(=O)c3ccc4ccccc4c3)CC2)nc1` + Cc1cnc(CNC(=O)c2c(=O)c3ccc(N4CCCN(C)CC4)nc3n3c2sc2ccccc23)cn1, for which the viability, T/C was 0.16%.

Staying with this assay, now noted: second compound 10 µM; first compound 1 µM; hits give low values.
With `CC(C)(O)C1CCC(Nc2ccc3ncc(-c4cccc(C(F)(F)F)c4)n3n2)CC1` (configuration not stated) + CN(C)c1ccc(Nc2c3ccc(NC(=O)CCN4CCCC4)cc3nc3cc(NC(=O)CCN4CCCC4)ccc23)cc1, the viability, T/C was 0.46%.
With `C=CC(=O)N1CCN(c2nc(=O)n(-c3c(C)ccnc3C(C)C)c3nc(-c4c(O)cccc4F)c(F)cc23)C(C)C1` (configuration not stated) + CN(C)c1ccc(Nc2c3ccc(NC(=O)CCN4CCCC4)cc3nc3cc(NC(=O)CCN4CCCC4)ccc23)cc1, the viability, T/C is 8.02%.
For the compound `C=CC(=O)N1CCN(c2nc(=O)n(-c3c(C)ccnc3C(C)C)c3nc(-c4c(O)cccc4F)c(F)cc23)C(C)C1` (configuration not stated) + Cc1cnc(CNC(=O)c2c(=O)c3ccc(N4CCCN(C)CC4)nc3n3c2sc2ccccc23)cn1, the viability, T/C was 13.2%.
Regarding `COc1cc(C2c3cc4c(cc3C(OC3OC5COC(C)OC5C(O)C3O)C3COC(=O)C23)OCO4)cc(OC)c1O` (configuration not stated) + Cc1[nH]c2ccc(F)cc2c1-c1nc2c3cccnc3c3ncccc3c2[nH]1, the viability, T/C is 17.7%.
`O=C(NO)c1cnc(N2CCN(S(=O)(=O)c3ccc4ccccc4c3)CC2)nc1` + Cc1cnc(CNC(=O)c2c(=O)c3ccc(N4CCCN(C)CC4)nc3n3c2sc2ccccc23)cn1: the viability, T/C was 0.1%.

Still in this assay, the particulars now being: second compound 10 µM; first compound 3.16 µM; hits give low values.
For `CC(C)(O)C1CCC(Nc2ccc3ncc(-c4cccc(C(F)(F)F)c4)n3n2)CC1` (configuration not stated) + CN(C)c1ccc(Nc2c3ccc(NC(=O)CCN4CCCC4)cc3nc3cc(NC(=O)CCN4CCCC4)ccc23)cc1, the viability, T/C was 0.22%.
Take `C=CC(=O)N1CCN(c2nc(=O)n(-c3c(C)ccnc3C(C)C)c3nc(-c4c(O)cccc4F)c(F)cc23)C(C)C1` (configuration not stated) + CN(C)c1ccc(Nc2c3ccc(NC(=O)CCN4CCCC4)cc3nc3cc(NC(=O)CCN4CCCC4)ccc23)cc1: the viability, T/C is 6.86%.
In the case of `C=CC(=O)N1CCN(c2nc(=O)n(-c3c(C)ccnc3C(C)C)c3nc(-c4c(O)cccc4F)c(F)cc23)C(C)C1` (configuration not stated) + Cc1cnc(CNC(=O)c2c(=O)c3ccc(N4CCCN(C)CC4)nc3n3c2sc2ccccc23)cn1, the viability, T/C is 35.4%.
On to `COc1cc(C2c3cc4c(cc3C(OC3OC5COC(C)OC5C(O)C3O)C3COC(=O)C23)OCO4)cc(OC)c1O` (configuration not stated) + Cc1[nH]c2ccc(F)cc2c1-c1nc2c3cccnc3c3ncccc3c2[nH]1, for which the viability, T/C was 11.9%.
With `O=C(NO)c1cnc(N2CCN(S(=O)(=O)c3ccc4ccccc4c3)CC2)nc1` + Cc1cnc(CNC(=O)c2c(=O)c3ccc(N4CCCN(C)CC4)nc3n3c2sc2ccccc23)cn1, the viability, T/C is 0.18%.

The assay is the same for the next values; noted with them: second compound 10 µM; first compound 10 µM; hits give low values.
Turning to `CC(C)(O)C1CCC(Nc2ccc3ncc(-c4cccc(C(F)(F)F)c4)n3n2)CC1` (configuration not stated) + CN(C)c1ccc(Nc2c3ccc(NC(=O)CCN4CCCC4)cc3nc3cc(NC(=O)CCN4CCCC4)ccc23)cc1, the viability, T/C is 0.31%.
As for `C=CC(=O)N1CCN(c2nc(=O)n(-c3c(C)ccnc3C(C)C)c3nc(-c4c(O)cccc4F)c(F)cc23)C(C)C1` (configuration not stated) + CN(C)c1ccc(Nc2c3ccc(NC(=O)CCN4CCCC4)cc3nc3cc(NC(=O)CCN4CCCC4)ccc23)cc1, the viability, T/C is 23.1%.
For the compound `C=CC(=O)N1CCN(c2nc(=O)n(-c3c(C)ccnc3C(C)C)c3nc(-c4c(O)cccc4F)c(F)cc23)C(C)C1` (configuration not stated) + Cc1cnc(CNC(=O)c2c(=O)c3ccc(N4CCCN(C)CC4)nc3n3c2sc2ccccc23)cn1, the viability, T/C is 6.85%.
Consider `COc1cc(C2c3cc4c(cc3C(OC3OC5COC(C)OC5C(O)C3O)C3COC(=O)C23)OCO4)cc(OC)c1O` (configuration not stated) + Cc1[nH]c2ccc(F)cc2c1-c1nc2c3cccnc3c3ncccc3c2[nH]1, for which the viability, T/C was 16.9%.
Regarding `O=C(NO)c1cnc(N2CCN(S(=O)(=O)c3ccc4ccccc4c3)CC2)nc1` + Cc1cnc(CNC(=O)c2c(=O)c3ccc(N4CCCN(C)CC4)nc3n3c2sc2ccccc23)cn1, the viability, T/C was 0.18%.
